Counter-ions that a name gives are not always drawn.
Key:
Assay type in all cases: cell-based
[1] = Cytotoxicity in PHA-stimulated human PBM cells; conditions: uninfected PHA-stimulated PBM cells
in vitro = conditions: human, CEM cells (T-lymphoblastoid cell line)
[2] = Cytotoxicity in Vero cells; conditions: African green monkey, Vero cells (kidney)
HIV-1LAI = experiment: Anti-HIV activity against HIV-1LAI in human PBM cells; conditions: HIV-1LAI in PBM cells

Structure (SMILES) | IC50 at 3 days (in vitro) | IC50 at 4 days [1] | IC50 at 2 days [2] | Anti-HIV activity compared with parent drug DOT (in words) (HIV-1LAI)
CCCCCCCC(=O)OC[C@@H]1OC[C@H](n2cc(C)c(=O)[nH]c2=O)O1 [Compound 3, Dioxolane thymine-5′-O-octanotic ester] | > 100 µM | > 100 µM |  | 
Cc1cn([C@H]2CO[C@@H](COC(=O)C(C)(C)C)O2)c(=O)[nH]c1=O [Compound 6, Dioxolane thymine-5′-O-pivalic ester] | > 100 µM | > 100 µM |  | 
CC(=O)OC[C@@H]1OC[C@H](n2cc(C)c(=O)[nH]c2=O)O1 [Compound 1, Dioxolane thymine-5′-O-acetic ester] |  | > 100 µM |  | 
Cc1cn([C@H]2CO[C@@H](COC(=O)C3CCCCC3)O2)c(=O)[nH]c1=O [Compound 8, Dioxolane thymine-5′-O-cyclohexanecarboxylic ester] | > 100 µM | > 100 µM |  | 
CCCCCCCCCCCC(=O)OC[C@@H]1OC[C@H](n2cc(C)c(=O)[nH]c2=O)O1 [Compound 4, Dioxolane thymine-5′-O-dodecanoic ester] | > 100 µM | > 100 µM |  | 
CCCCCCCCCCCCCCCC(=O)OC[C@@H]1OC[C@H](n2cc(C)c(=O)[nH]c2=O)O1 [Compound 5, Dioxolane thymine-5′-O-palmitic ester] | > 100 µM | > 100 µM |  | 
Cc1cn([C@H]2CO[C@@H](COCOC(=O)C(C)(C)C)O2)c(=O)[nH]c1=O [Compound 9, Dioxolane thymine-5′-O-pivaloyloxymethyl ether] | > 100 µM | > 100 µM |  | slightly reduced antiviral activity

The next lines start with results.

IC50 at 3 days (in vitro) | Structure (SMILES) | IC50 at 4 days [1] | IC50 at 2 days [2] | Anti-HIV activity compared with parent drug DOT (in words) (HIV-1LAI)
> 100 µM | Cc1cn([C@H]2CO[C@@H](COC(=O)CN)O2)c(=O)[nH]c1=O [Compound 11, Dioxolane thymine-5′-O-glycyl ester hydrochloride] | > 100 µM |  | 
> 100 µM | Cc1cn([C@H]2CO[C@@H](COC(=O)[C@@H](N)C(C)C)O2)c(=O)[nH]c1=O [Compound 16, Dioxolane thymine-5′-O-l-valyl ester hydrochloride] | > 100 µM | > 100 µM | 
> 100 µM | Cc1cn([C@H]2CO[C@@H](COC(=O)[C@@H](N)Cc3ccccc3)O2)c(=O)[nH]c1=O [Compound 14, Dioxolane thymine-5′-O-l-phenylalanyl ester hydrochloride] | > 100 µM | > 100 µM | 
> 100 µM | Cc1cn([C@H]2CO[C@@H](COC(=O)[C@H](N)C(C)C)O2)c(=O)[nH]c1=O [Compound 17, Dioxolane thymine-5′-O-d-valyl ester hydrochloride] | > 100 µM | > 100 µM | 
> 100 µM | Cc1cn([C@H]2CO[C@@H](COC(=O)[C@H](C)N)O2)c(=O)[nH]c1=O [Compound 13, Dioxolane thymine-5′-O-l-alanyl ester hydrochloride] | > 100 µM |  | 
> 100 µM | Cc1cn([C@H]2CO[C@@H](COC(=O)C3CC3)O2)c(=O)[nH]c1=O [Compound 7, Dioxolane thymine-5′-O-cyclopropanecarboxylic ester] | > 100 µM |  | 
> 100 µM | Cc1cn([C@H]2CO[C@@H](COC(=O)[C@H](N)Cc3ccccc3)O2)c(=O)[nH]c1=O [Compound 15, Dioxolane thymine-5′-O-d-phenylalanyl ester hydrochloride] | > 100 µM | > 100 µM | 
> 100 µM | Cc1cn([C@H]2CO[C@@H](COC(=O)[C@@H](N)CC(C)C)O2)c(=O)[nH]c1=O [Compound 18, Dioxolane thymine-5′-O-l-leucinyl ester hydrochloride] | > 100 µM |  | 
> 100 µM | CCCCC(=O)OC[C@@H]1OC[C@H](n2cc(C)c(=O)[nH]c2=O)O1 [Compound 2, Dioxolane thymine-5′-O-valeric ester] | > 100 µM |  | 

From PMC7734618 (Bioorganic & medicinal chemistry, 2008)
